Reference: US7498460B2, “Isophthalic acid derivatives” (Bayer Healthcare AG, priority 2002, dated 2009)

Assays:
human CysLT2 receptor = target: T1, human CysLT2 receptor (Homo sapiens, UniProt Q9NS75); experiment: Cellular in vitro test to determine the CysLT2 activity (aequorin luminescence, LTD4 stimulation); type: cell-based; settings: CHO K1 cells with aequorin and human CysLT2 receptor; agonist LTD4 3×10^−8 M
T1 construct: expressed in transfected cells; host or cells: CHO K1 (ATCC) constitutively expressing aequorin
T1 sequence (Q9NS75 1-346): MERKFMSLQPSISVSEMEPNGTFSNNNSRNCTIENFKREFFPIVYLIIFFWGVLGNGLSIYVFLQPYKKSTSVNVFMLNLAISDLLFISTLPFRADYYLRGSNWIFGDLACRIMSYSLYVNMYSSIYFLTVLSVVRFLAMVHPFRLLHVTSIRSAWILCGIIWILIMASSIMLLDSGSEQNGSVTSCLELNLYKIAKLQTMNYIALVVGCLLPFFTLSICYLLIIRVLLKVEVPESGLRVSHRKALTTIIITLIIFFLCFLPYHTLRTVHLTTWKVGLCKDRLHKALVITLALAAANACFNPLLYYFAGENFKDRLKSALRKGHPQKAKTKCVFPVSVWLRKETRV
Description: B. Assessment of the Physiological Activity Abbreviations: DMEM Dulbecco's modified Eagle medium FCS Fetal calf serum HEPES 4-(2-hydroxyethyl)-1-piperazineethanesulphonic acid 1. Cellular In Vitro Test to Determine the CysLT2 Activity
A recombinant cell line is used to identify antagonists of the human cysteinyl-leukotriene 2 receptor (CysLT2R) and to quantify the activity of the substances described herein. The cell is originally derived from a hamster ovary epithelial cell (Chinese Hamster Ovary, CHO K1, ATCC: American Type Culture Collection, Manassas, Va. 20108, USA). The test cell line constitutively expresses the calcium-sensitive photoprotein aequorin which, after reconstitution with the cofactor coelenterazine, emits light when the cytoplasmic calcium concentration is increased (Rizzuto R, Simpson A W, Brini M, Pozzan T.; Nature 358 (1992) 325-327). The cell is additionally stably transfected with the human CysLT2 receptor (Heise et.al., JBC 275 (2000) 30531-30536). The resulting CysLT2R test cell responds to stimulation of the recombinant CysLT2 receptor (agonists: leukotriene D4 (LTD4) and leukotriene C4 (LTC4)) with an intracellular release of calcium ions, which can be quantified through the resulting aequorin luminescence with a suitable luminometer (Milligan G, Marshall F, Rees S, Trends in Pharmacological Sciences 17 (1996) 235-237). Preincubation with antagonists of the CysLT2 receptor reduces the calcium release induced by the agonists LTD4 and LTC4 and thus the measured amount of light.
(§1) Test procedure: The cells are plated out two days before the test in culture medium (DMEM/F12 with Glutamax, Gibco Cat.# 61965-026; 10% FCS, Gibco Cat.# 10270-106; 1.4 mM sodium pyruvate, Gibco Cat.# 11360-039; 1.8 mM sodium bicarbonate, Gibco Cat.# 25080-060; 10 mM HEPES, Gibco Cat.# 15290-026; now belongs to Invitrogen GmbH, 76131 Karlsruhe) in 384- (or 1536-)well microtitre plates and kept in a cell incubator (96% humidity, 5% V/V CO2, 37° C.). On the day of the test, the culture medium is replaced by Tyrode solution (in mM: 140 NaCl, 5 KCl, 1 MgCl2, 2 CaCl2; 20 glucose, 20 HEPES) which additionally contains the cofactor coelenterazine (50 μM), and the microtitre plate is then incubated for a further 3-4 hours. 15 minutes after the test substances have been transferred into the wells of the microtitre plate, the resulting light signal is measured after addition of the LTD4 (3×10^−8 M) in the luminometer.

human CysLT1 receptor = target: T2, human CysLT1 receptor (Homo sapiens, UniProt Q9Y271); experiment: Cellular in vitro test to determine the CysLT1 activity (aequorin luminescence, LTD4 stimulation); type: cell-based; settings: CHO K1 cells with aequorin and human CysLT1 receptor; agonist LTD4 3×10^−9 M
T2 construct: expressed in transfected cells; host or cells: CHO K1 (ATCC) constitutively expressing aequorin
T2 sequence (Q9Y271 1-337): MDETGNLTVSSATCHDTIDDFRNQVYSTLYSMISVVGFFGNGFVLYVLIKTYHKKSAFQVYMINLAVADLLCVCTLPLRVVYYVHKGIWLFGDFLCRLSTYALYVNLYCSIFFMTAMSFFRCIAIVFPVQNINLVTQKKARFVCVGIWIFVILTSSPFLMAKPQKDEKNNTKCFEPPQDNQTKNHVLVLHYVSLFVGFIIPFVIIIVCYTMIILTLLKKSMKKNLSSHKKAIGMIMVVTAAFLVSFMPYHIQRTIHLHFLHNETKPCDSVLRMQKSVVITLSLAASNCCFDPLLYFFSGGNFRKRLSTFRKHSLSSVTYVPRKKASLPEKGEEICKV
Description: 2. Cellular In Vitro Test to Determine the CysLT1 Activity
A recombinant cell line is used to identify antagonists of the human cysteinyl-leukotriene 1 receptor (CysLT1R) and to quantify the activity of the substances described herein. The cell is originally derived from a hamster ovary epithelial cell (Chinese Hamster Ovary, CHO K1, ATCC: American Type Culture Collection, Manassas, Va. 20108, USA). The test cell line constitutively expresses the calcium-sensitive photoprotein aequorin which, after reconstitution with the cofactor coelenterazine, emits light when the cytoplasmic calcium concentration is increased (Rizzuto R, Simpson A W, Brini M, Pozzan T.; Nature 358 (1992) 325-327). The cell is additionally stably transfected with the human CysLT1 receptor (Lynch et al., Nature 399 (1999) 789-793). The resulting CysLT1R test cell responds to stimulation of the recombinant CysLT1 receptor (agonist: leukotriene D4 (LTD4)) with an intracellular release of calcium ions, which can be quantified through the resulting aequorin luminescence with a suitable luminometer (Milligan G, Marshall F, Rees S. Trends in Pharmacological Sciences 17 (1996) 235-237). Preincubation with antagonists of the CysLT1 receptor reduces the calcium release induced by the agonist LTD4 and thus the measured amount of light.
as §1, with “CaCl2,” for “CaCl2;”, “(3×10^−9M)” for “(3×10^−8 M)”

[1] = system: isolated guinea pig hearts; experiment: Langendorff guinea pig heart: perfusion pressure and left ventricular pressure after LTC4
Protocol: 3. […] to Detect the Cardiovascular Effect: Langendorff Guinea Pig Heart
The heart is removed after opening the chest cavity of anaesthetized guinea pigs and is introduced into a conventional Langendorff apparatus. The coronary arteries are subjected to a constant volume (10 ml/min) perfusion, and the perfusion pressure arising thereby is recorded via an appropriate pressure transducer. A decrease in the perfusion pressure in this arrangement corresponds to a relaxation of the coronary arteries. At the same time, the pressure developed by the heart during each contraction (the left ventricular pressure) is measured by a balloon introduced into the left ventricle, and a further pressure transducer. The rate at which the isolated heart beats is found by calculation from the number of contractions per unit time.
To detect the effect of CysLT2 receptor antagonists, the perfusion with the agonist LTC4 (10^−8 M) is started 15 minutes before addition of increasing concentrations of the test substance (10^−8 to 10^−6 M).

[2] = LTC4 (10^−8M) + test sub. (10^−6M)
[3] = LTC4 (10^−8M) + test sub. (10^−7M)
[4] = LTC4 (10^−8M) + test sub. (10^−8M)

| Structure (SMILES) | IC50 (human CysLT2 receptor) [nM] | IC50 (human CysLT1 receptor) [nM] | Left ventricular pressure relative to control without LTC4 [1, 2] [%] | Perfusion pressure relative to control without LTC4 [1, 2] [%] | Left ventricular pressure relative to control without LTC4 [1, 3] [%] | Perfusion pressure relative to control without LTC4 [1, 3] [%] | Left ventricular pressure relative to control without LTC4 [1, 4] [%] | Perfusion pressure relative to control without LTC4 [1, 4] [%] | melting point [°C] |
| --- | --- | --- | --- | --- | --- | --- | --- | --- | --- |
| O=C(O)c1ccc(OCCCc2ccc(OCCCCOc3ccccc3)cc2)c(C(=O)NC2CCCC(C(=O)O)C2)c1 (racemic) [Example 11, 3-{[(3-Carboxycyclohexyl)amino]carbonyl}-4-{3-[4-(4-phenoxybutoxy)phenyl]-propoxy}benzoic acid (racemate B)] | 35 | > 10000 | 79 | 108 | 60 | 112 | 44 | 125 | 182 to 183 |
| O=C(O)c1ccc(OCCCc2ccc(OCCCCOc3ccccc3)cc2)c(C(=O)NC2CCCC(C(=O)O)C2)c1 (racemic) [Example 12, 3-{[(3-Carboxycyclohexyl)amino]carbonyl}-4-{3-[4-(4-phenoxybutoxy)phenyl]-propoxy}benzoic acid (racemate A)] | – | – | – | – | – | – | – | – | > 210 |
| O=C(O)c1ccc(OCCCc2ccc(OCc3ccc(-c4ccccc4)cc3)cc2)c(C(=O)N2CCC(C(=O)O)CC2)c1 [Example 13, 1-(2-{3-[4-(1,1′-Biphenyl-4-ylmethoxy)phenyl]propoxy}-5-carboxybenzoyl)-4-piperidinecarboxylic acid] | – | – | – | – | – | – | – | – | 193 to 194 |
| O=C(O)c1ccc(OCCCc2ccc(OCCCCOc3ccccc3)cc2)c(C(=O)N2CCC(C(=O)O)CC2)c1 [Example 15, 1-(5-Carboxy-2-{3-[4-(4-phenoxybutoxy)phenyl]propoxy}benzoyl)-4-piperidine-carboxylic acid] | – | – | – | – | – | – | – | – | 142 to 143 |
| O=C(O)c1ccc(OCCCc2ccc(OCCCCOc3ccccc3)cc2)c(C(=O)NC2CCC(C(=O)O)CC2)c1 (stereo not shown) [Example 16, 3-{[(4-Carboxycyclohexyl)amino]carbonyl}-4-{3-[4-(4-phenoxybutoxy)phenyl]-propoxy}benzoic acid] | – | – | – | – | – | – | – | – | 163 to 165 |
| O=C(O)CC1CCN(C(=O)c2cc(C(=O)O)ccc2OCCCc2ccc(OCCCCOc3ccccc3)cc2)CC1 [Example 18, 3-{[4-(Carboxymethyl)-1-piperidinyl]carbonyl}-4-{3-[4-(4-phenoxybutoxy)phenyl]-propoxy}benzoic acid] | – | – | – | – | – | – | – | – | 192 |
| O=C(O)c1ccc(OCCCc2ccc(OCCCC3CCCCC3)cc2)c(C(=O)NC2CCCC(C(=O)O)C2)c1 (stereo not shown) [Example 23, 3-{[(3-Carboxycyclohexyl)amino]carbonyl}-4-{3-[4-(3-cyclohexylpropoxy)phenyl]-propoxy}benzoic acid] | 5 | 2000 | 97 | 111 | 84 | 127 | 72 | 133 | 160 |
| O=C(O)c1ccc(OCCCc2ccc(OCCCC3CCCCC3)cc2)c(C(=O)N2CCC(C(=O)O)CC2)c1 [Example 31, 1-(5-Carboxy-2-{3-[4-(3-cyclohexylpropoxy)phenyl]propoxy}benzoyl)piperidine-4-carboxylic acid] | 14 | 2500 | 87 | 112 | 81 | 123 | 67 | 128 | 183.4 to 184.5 |
| CC(C)Oc1ccc(COc2ccc(CCCOc3ccc(C(=O)O)cc3C(=O)NC3CCCC(C(=O)O)C3)cc2)cc1 (stereo not shown) [Example 33, 3-{[(3-Carboxycyclohexyl)amino]carbonyl}-4-(3-{4-[(4-isopropoxybenzyl)oxy]-phenyl}propoxy)benzoic acid] | 15 | > 10000 | 84 | 108 | 57 | 121 | 44 | 122 | – |
